The supplement of paper PMC12076712

Columns and labels:
Test in all cases: pIC50, kinobeads binding competition
[1] = molecular target: TGFBR2 (UniProt P37173); settings: cell material: Jurkat lysate
[2] = molecular target: TYK2 (UniProt P29597); settings: cell material: Jurkat lysate
[3] = molecular target: T1, LATS1 (UniProt O95835); settings: cell material: Jurkat lysate
T1 sequence (whole entry): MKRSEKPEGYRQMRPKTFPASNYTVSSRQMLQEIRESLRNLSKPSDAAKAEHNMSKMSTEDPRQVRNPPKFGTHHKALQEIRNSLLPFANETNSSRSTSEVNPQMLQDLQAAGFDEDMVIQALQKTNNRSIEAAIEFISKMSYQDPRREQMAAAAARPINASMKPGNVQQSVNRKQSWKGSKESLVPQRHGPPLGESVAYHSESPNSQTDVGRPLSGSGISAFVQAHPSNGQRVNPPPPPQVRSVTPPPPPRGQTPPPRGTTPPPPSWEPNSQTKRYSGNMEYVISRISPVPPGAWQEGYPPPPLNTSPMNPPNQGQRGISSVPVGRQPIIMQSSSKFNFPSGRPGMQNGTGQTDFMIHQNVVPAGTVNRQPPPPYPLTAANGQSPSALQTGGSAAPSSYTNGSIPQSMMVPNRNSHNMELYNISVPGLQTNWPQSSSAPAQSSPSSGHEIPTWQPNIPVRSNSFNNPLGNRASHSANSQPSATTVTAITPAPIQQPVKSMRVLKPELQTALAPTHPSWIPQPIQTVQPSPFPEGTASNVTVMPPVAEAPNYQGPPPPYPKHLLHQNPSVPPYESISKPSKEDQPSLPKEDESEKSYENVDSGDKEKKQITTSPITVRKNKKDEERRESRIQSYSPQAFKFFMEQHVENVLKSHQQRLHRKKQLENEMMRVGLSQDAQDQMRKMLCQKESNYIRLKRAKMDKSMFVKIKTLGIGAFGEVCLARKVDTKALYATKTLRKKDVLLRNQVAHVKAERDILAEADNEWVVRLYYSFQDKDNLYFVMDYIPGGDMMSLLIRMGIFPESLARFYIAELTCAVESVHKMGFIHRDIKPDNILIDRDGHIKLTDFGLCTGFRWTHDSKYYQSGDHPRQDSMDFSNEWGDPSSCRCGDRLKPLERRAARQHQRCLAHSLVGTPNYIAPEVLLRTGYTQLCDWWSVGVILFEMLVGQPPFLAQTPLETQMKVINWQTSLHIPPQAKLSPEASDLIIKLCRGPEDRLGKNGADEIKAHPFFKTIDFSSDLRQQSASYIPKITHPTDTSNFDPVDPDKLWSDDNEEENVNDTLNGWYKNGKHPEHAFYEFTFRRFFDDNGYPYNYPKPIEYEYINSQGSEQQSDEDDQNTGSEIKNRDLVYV

[4] = molecular target: MELK (UniProt Q14680); settings: cell material: Jurkat lysate
[5] = molecular target: T2, ZAP70 (UniProt P43403)
T2 sequence (whole entry): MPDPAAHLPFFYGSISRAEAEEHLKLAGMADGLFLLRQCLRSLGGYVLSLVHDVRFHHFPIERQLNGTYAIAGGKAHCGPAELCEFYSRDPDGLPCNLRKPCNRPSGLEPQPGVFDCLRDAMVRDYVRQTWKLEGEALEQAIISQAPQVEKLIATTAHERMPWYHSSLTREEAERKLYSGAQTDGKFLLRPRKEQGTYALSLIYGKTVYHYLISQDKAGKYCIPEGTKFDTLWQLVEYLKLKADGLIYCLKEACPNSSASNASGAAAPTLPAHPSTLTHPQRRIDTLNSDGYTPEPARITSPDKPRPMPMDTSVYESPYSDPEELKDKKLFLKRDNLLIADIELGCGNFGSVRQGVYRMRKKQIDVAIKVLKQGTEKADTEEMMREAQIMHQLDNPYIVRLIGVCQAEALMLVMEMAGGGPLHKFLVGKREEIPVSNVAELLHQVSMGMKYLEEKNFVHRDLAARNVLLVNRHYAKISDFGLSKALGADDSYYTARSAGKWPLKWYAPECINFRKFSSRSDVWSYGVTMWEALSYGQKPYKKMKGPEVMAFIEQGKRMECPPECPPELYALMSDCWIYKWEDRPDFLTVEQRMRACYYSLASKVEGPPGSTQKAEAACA
Outline: (§1)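 pIC50 was obtained by fitting fold changes against vehicle to logistic dose-response curves with the R drc package, using biological duplicates. Kinobeads-bound proteins were digested and measured by TMT10 LC-MS/MS. Before this, either living Jurkat cells received nine compound concentrations (top 30 μM, 1:4 steps) for 60 min at 37 °C prior to lysis, or Jurkat lysate or a 1:1:1:1 HEK293/K-562/HepG2/placenta lysate mix received nine concentrations (top 30 μM, 1:5 steps) for 60 min at 4 °C.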

[6] = molecular target: PAK1 (UniProt Q13153); settings: cell material: Jurkat cells
Chain of PAK1 (Q13153 whole entry): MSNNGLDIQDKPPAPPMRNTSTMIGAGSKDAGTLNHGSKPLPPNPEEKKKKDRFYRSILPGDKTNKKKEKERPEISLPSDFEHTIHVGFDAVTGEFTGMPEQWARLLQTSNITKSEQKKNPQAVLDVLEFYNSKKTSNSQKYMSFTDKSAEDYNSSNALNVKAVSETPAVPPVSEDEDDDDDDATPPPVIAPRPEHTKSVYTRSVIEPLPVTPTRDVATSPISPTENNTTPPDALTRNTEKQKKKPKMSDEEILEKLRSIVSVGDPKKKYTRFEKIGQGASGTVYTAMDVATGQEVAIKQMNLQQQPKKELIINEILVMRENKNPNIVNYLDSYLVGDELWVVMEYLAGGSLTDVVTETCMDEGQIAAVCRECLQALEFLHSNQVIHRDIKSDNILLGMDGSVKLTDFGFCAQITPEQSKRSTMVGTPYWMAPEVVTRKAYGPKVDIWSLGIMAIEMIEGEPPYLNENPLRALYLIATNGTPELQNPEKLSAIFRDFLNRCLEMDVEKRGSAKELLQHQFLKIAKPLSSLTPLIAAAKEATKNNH
Outline: as §1

[7] = molecular target: PRKCH (UniProt P24723)
Chain of PRKCH (P24723 whole entry, looked up): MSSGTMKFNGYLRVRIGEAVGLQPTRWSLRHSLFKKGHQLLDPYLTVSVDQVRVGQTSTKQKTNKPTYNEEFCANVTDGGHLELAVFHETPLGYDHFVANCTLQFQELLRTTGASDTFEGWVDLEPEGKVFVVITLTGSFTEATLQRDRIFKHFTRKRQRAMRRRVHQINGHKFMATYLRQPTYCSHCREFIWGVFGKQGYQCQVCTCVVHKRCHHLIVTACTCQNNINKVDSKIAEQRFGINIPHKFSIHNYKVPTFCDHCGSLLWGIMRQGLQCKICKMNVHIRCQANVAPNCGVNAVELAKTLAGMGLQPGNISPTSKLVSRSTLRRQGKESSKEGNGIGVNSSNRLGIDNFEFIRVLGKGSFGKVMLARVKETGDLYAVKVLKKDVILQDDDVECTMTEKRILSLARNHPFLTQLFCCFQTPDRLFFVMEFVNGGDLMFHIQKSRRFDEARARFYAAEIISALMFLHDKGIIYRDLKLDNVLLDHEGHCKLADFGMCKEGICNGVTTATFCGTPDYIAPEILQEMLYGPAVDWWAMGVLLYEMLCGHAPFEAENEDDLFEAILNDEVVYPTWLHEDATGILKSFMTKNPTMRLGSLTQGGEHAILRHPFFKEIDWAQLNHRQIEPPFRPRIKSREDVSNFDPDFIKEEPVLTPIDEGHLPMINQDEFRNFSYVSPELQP
Outline: as §1

[8] = molecular target: TLK2 (UniProt Q86UE8); settings: cell material: Jurkat cells
Chain of TLK2 (Q86UE8 whole entry, looked up): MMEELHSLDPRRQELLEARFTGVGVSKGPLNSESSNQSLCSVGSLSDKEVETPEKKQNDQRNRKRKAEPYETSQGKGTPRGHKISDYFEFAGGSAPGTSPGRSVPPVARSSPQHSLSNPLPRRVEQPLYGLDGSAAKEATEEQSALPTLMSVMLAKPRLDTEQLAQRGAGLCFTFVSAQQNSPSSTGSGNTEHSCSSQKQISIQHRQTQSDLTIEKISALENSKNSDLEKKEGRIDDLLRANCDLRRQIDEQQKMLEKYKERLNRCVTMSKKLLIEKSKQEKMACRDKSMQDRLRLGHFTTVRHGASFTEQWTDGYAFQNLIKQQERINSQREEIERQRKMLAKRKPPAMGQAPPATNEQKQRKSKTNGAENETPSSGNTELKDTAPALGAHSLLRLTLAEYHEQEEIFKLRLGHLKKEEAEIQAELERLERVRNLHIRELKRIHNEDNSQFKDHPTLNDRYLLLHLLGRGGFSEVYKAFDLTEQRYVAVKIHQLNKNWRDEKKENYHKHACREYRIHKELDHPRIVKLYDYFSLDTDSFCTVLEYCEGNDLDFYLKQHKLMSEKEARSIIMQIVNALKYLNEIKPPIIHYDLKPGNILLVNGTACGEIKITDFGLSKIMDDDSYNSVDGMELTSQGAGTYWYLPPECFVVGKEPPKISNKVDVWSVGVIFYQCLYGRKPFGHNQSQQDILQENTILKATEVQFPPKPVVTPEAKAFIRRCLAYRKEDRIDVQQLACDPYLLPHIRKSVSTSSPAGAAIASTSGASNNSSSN
Outline: as §1

[9] = molecular target: T3, UHMK1 (UniProt Q8TAS1); settings: cell material: Jurkat lysate
T3 sequence (whole entry): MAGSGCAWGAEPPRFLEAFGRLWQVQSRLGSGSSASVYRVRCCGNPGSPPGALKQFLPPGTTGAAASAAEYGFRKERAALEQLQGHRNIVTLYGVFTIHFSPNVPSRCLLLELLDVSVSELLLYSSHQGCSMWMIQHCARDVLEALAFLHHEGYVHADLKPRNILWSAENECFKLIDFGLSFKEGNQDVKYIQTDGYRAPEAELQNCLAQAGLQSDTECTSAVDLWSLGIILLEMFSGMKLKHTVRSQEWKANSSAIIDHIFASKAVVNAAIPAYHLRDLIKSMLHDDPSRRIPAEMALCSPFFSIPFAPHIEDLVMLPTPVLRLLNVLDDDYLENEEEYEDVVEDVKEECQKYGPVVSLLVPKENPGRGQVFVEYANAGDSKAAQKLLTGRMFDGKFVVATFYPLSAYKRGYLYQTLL
Outline: as §1

[10] = molecular target: UniProt O00506
Chain of UniProt O00506 (O00506 whole entry, looked up): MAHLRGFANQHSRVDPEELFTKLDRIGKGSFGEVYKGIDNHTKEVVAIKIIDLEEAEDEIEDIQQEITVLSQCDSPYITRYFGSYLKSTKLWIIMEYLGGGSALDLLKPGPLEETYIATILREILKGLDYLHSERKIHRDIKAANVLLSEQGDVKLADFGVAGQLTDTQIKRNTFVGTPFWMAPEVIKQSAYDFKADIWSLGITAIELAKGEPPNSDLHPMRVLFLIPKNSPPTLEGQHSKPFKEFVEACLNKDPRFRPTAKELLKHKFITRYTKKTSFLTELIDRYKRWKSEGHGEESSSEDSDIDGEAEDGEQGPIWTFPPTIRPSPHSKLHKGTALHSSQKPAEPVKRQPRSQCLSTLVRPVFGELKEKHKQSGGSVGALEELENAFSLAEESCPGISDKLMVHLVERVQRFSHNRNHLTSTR
Outline: as §1

[11] = molecular target: RAF1 (UniProt P04049)
Chain of RAF1 (P04049 whole entry): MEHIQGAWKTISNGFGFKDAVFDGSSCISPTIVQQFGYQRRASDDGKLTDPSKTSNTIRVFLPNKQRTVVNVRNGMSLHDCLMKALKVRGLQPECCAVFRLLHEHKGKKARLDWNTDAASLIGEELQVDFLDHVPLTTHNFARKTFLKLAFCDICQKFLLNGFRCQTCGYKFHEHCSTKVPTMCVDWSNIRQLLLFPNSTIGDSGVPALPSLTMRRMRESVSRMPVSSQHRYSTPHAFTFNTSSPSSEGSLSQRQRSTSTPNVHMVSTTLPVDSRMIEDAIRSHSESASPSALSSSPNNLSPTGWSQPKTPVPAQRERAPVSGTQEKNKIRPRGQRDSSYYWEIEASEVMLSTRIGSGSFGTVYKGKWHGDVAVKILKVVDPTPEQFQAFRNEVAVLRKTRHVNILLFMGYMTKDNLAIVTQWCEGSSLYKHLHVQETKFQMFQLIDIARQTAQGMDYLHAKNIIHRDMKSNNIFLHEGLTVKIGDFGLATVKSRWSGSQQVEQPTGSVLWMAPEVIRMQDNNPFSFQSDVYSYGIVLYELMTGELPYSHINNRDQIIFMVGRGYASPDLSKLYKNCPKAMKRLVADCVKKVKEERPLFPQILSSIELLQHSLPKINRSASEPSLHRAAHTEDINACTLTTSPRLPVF
Outline: as §1

[12] = molecular target: TRRAP (UniProt Q9Y4A5); settings: cell material: Jurkat cells
Outline: as §1

[13] = molecular target: AKT1 (UniProt P31749)
Chain of AKT1 (P31749 whole entry): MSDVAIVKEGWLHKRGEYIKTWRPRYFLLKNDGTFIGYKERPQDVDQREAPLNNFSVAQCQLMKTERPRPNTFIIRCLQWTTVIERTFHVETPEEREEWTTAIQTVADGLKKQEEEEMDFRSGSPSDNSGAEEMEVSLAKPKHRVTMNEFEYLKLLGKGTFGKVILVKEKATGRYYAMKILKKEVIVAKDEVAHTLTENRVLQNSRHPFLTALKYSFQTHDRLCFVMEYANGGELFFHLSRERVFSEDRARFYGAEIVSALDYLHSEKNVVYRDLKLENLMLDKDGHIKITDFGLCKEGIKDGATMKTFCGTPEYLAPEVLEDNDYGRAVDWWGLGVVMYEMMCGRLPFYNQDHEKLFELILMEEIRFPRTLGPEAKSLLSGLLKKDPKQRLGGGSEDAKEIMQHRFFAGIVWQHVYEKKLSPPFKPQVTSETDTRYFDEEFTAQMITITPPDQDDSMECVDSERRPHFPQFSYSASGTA
Outline: as §1

[14] = molecular target: LZK (UniProt O43283); settings: cell material: Lysate mix
Chain of LZK (O43283 whole entry): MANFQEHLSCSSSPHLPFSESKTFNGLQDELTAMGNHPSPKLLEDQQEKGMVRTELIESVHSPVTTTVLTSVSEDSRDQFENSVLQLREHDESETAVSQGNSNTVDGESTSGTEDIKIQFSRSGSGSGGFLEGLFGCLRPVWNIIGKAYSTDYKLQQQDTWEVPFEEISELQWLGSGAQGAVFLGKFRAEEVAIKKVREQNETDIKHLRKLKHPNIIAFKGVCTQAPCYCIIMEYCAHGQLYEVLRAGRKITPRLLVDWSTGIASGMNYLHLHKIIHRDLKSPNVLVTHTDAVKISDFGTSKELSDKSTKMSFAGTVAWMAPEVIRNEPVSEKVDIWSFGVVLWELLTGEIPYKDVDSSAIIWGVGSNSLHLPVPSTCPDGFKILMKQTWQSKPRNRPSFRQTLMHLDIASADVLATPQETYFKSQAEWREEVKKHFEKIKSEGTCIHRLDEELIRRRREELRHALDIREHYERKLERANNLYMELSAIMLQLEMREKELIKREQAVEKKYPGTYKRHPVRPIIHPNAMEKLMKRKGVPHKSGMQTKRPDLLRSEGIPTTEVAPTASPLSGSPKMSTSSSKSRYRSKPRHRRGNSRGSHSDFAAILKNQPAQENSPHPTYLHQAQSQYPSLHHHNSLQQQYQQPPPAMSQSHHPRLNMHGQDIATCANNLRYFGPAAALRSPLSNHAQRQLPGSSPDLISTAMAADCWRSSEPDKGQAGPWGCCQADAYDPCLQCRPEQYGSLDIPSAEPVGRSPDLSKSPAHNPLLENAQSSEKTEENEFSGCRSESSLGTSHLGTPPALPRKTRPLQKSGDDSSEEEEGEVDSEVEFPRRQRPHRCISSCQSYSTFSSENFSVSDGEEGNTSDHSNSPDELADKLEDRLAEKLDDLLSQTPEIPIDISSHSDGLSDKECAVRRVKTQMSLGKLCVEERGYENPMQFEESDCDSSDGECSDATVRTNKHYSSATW
Outline: as §1

pIC50 [14] | Structure (SMILES) | pIC50 ([5]; cell material: Jurkat cells) | pIC50 ([5]; cell material: Jurkat lysate) | pIC50 [6] | pIC50 ([7]; cell material: Jurkat lysate) | pIC50 [8] | pIC50 [9] | pIC50 ([11]; cell material: Jurkat cells) | pIC50 [12] | pIC50 ([13]; cell material: Jurkat cells) | other results
– | CCc1cnn2c(NCc3ccc[n+]([O-])c3)cc(N3CCCC[C@H]3CCO)nc12 [dinaciclib] | – | – | – | – | – | – | – | – | – | pIC50 [1]: < 4.52; pIC50 [2]: < 4.52; pIC50 [3]: < 4.52; pIC50 [4]: < 4.52
– | C#CCNC(=O)c1cc(Nc2cc(C3CC3)[nH]n2)nc(N2CCN(Cc3ccc(S(=O)(=O)F)cc3)CC2)n1 | 6.43 | < 4.52 | < 4.52 | < 4.52 | < 4.52 | < 4.52 | < 4.52 | < 4.52 | 4.92 | pIC50 ([10]; cell material: Jurkat lysate): 6.59
– | O=C(NCCNC(=O)c1cc(Nc2cc(C3CC3)[nH]n2)nc(N2CCN(Cc3ccc(S(=O)(=O)F)cc3)CC2)n1)OC1CC/C=C/CCC1 (centres undefined) | 6.09 | < 4.52 | < 4.52 | < 4.52 | < 4.52 | < 4.52 | < 4.52 | < 4.52 | < 4.52 | pIC50 ([7]; cell material: Jurkat cells): < 4.52; pIC50 ([10]; cell material: Lysate mix): < 4.52; pIC50 ([11]; cell material: Jurkat lysate): < 4.52; pIC50 ([13]; cell material: Jurkat lysate): < 4.52
5.12 | CCNC(=O)c1cc(Nc2cc(C3CC3)[nH]n2)nc(N2CCN(Cc3ccc(S(=O)(=O)F)cc3)CC2)n1 | – | – | – | – | – | – | – | – | – | –
< 4.52 | Cc1cc(Nc2cc(C(=O)NCCNC(=O)OC3CC/C=C/CCC3)nc(N3CCN(Cc4ccc(S(=O)(=O)F)cc4)CC3)n2)n[nH]1 (centres undefined) | – | – | – | – | – | – | – | – | – | –
